87 compounds from a melting point compilation (Tetko et al.; mined from patent text by program, amines drawn as free bases though some values may be those of a salt) can be followed below.

As for `O=C(O)c1ccc(-c2ccc3nnn(Cc4ccc5ncccc5c4)c3n2)cc1`, the melting point lay in the range of 245 to 247 °C.
As for `CC(C(=O)c1c(O)c2cccnc2n(-c2cccc(OC(F)(F)F)c2)c1=O)c1ccccc1` (configuration not stated), the melting point lay within 136 to 138 °C.
The result for `Cc1cccc2c1N(CC(=O)c1ccccc1O)C(=O)C(NC(=O)Nc1cccc(-c3nnn[nH]3)c1)N=C2c1ccccc1F` (configuration not stated) reads 221 to 225 °C; that for `COCc1c(C(=O)NN)ncc2[nH]c3cccc(OCc4ccccc4)c3c12`, 212 to 213 °C; that for `CN1CCc2cc(O)c(O)c(Sc3ccc([N+](=O)[O-])cc3)c2CC1`, 125 to 127 °C.
`COc1cc2sc(C(=O)O)cc2c(Cl)c1OC` showed a melting point of 267 to 270 °C.
`CCOC(=O)CNC(=O)c1n[nH]cc1NC(=O)c1cccc(C)n1` showed a melting point of 228 to 229 °C.
Under `CNC(=O)CC1(C)OCCn2c1c(C)c1ccccc12` (configuration not stated) stands 131 to 133 °C.
Under `NS(=O)(=O)c1ccc(-n2nc(C(F)(F)F)cc2-c2ccc(-c3cscn3)c(C(F)(F)F)c2)cn1` stands 114 °C.
Regarding `CCC(=CC(CNC(=O)c1cccnc1)=NO)C(C(C)C)[N+](=O)[O-]` (configuration not stated), the melting point was in the range of 141 to 142 °C.
The result for `COC(=O)c1cc(I)c[nH]1` reads 77 to 78 °C; that for `Cn1c2ccc(F)cc2c(=O)n2nc(C(N)=O)cc12`, above 350 °C.
Compound `CC1(C)Oc2ccc(-c3c(O)c(=O)c3=O)cc2[C@@H](N2Cc3ccccc3C2=O)[C@@H]1O` (relative stereo) registered a melting point above 250 °C.
The result for `CCOC(=O)c1nnc(N2N=C(c3ccc([N+](=O)[O-])c(C)c3)c3cc4c(cc3C[C@H]2C)OCO4)s1` reads 115 to 118 °C.
Consider `C[C@@H](N(CC(=O)O)C(=O)c1ccc(C(F)(F)F)cc1)[C@](O)(Cn1cncn1)c1ccc(Cl)cc1Cl` (relative stereo), for which the melting point is 140 to 142 °C.
`COC(=O)c1cccc(-c2c(C)c(C(=O)c3ccc4nc(C)[nH]c(=O)c4c3)n3ccccc23)c1` showed a melting point of 232 °C.
Regarding `Cc1cccc(C(=O)NCc2cccc3c2CN(C2CCC(=O)NC2=O)C3=O)c1` (configuration not stated), the melting point fell in the range of 253 to 255 °C.
The result for `Cn1cc(-c2cnc3ccc(Br)cc3n2)cn1` reads 172 °C.
Under `N[C@@H](CCC(=O)O)C(=O)N[C@@H](Cc1ccccc1)C(=O)OCc1ccccc1` stands 103 to 104 °C.
In turn, `CN(CCC#N)C(=O)c1nc(Cl)c(Cl)[nH]1` came in with a melting point of 184 °C.
Under `Nc1cc(-c2ccc(CO)o2)nn1Cc1ccccc1` stands 163 °C; under `CC(=O)N[C@@H](Cc1ccccc1)C[C@H](O)[C@H](Cc1ccccc1)N(Cc1ccccc1)Cc1ccccc1`, 84 to 86 °C; under `CNC(=O)N(OC)c1ccc(Oc2ccc3sncc3c2)c(C(F)(F)F)c1`, 197 °C.
In turn, `CCOc1ncc(S(C)(=O)=O)cc1C(=O)O` returned a melting point of 175 to 176 °C.
Turning to `COc1nc(-c2cccc(Cl)c2)c2cc(C(=O)N(C)OC)ccc2n1`, the melting point stood at 118 °C.
The compound `COC(=O)c1ccc2cc(-c3ccc(CO)c(C45CC6CC(CC(C6)C4)C5)c3)ccc2c1` displayed a melting point of 212 °C.
The result for `Cc1nc(N2CCN(Cc3ccc(OC(F)(F)F)cc3)C2=O)sc1C(=O)Nc1ccccc1` reads 187 to 188 °C; that for `O=C(O)Cc1ccc(Oc2ccc(I)cc2)cc1`, 148 to 150 °C; that for `CCCn1c(C)nc(N2CCc3ccccc3CC2)c([N+](=O)[O-])c1=O`, 164 to 170 °C.
Compound `O=C(Nc1ccc(CN2CCCC2)cc1)C1=Cc2cc(-c3ccccc3)ccc2CC1` had a melting point of 186 to 187 °C.
Under `COc1cccc(CC(=O)O)c1OCCCc1cc(OC(C)C)nn1Cc1c(F)cccc1Cl` stands 97 to 98 °C; under `CCN(CC)CCN1C(=O)Nc2ccc([N+](=O)[O-])cc2C1c1ccccc1` (configuration not stated), 161 to 163 °C.
The result for `O=S(=O)(CCCCCOc1ccc(C2=C(c3ccc(O)cc3)CCCc3cc(O)ccc32)cc1)CCCC(F)(F)C(F)(F)F` reads 168 to 170 °C; that for `COc1ccc(C(=O)c2ccccn2)cc1`, 96 to 98 °C.
`CN(C)c1ccc(C(C)(C(=O)O)c2ccc(N(C)C)cc2)cc1` registered a melting point of 152 to 154 °C.
The result for `CCc1[nH]n(C2CCCC2)c2nc(-c3ccccc3O)nc(=O)c1-2` reads 272 to 273 °C; that for `CCN1Cc2nc(CO)cn2-c2ccccc21`, 160 to 165 °C.
Under `C=C(COc1ccc(C(=O)CCC(=O)O)cc1)COc1ccc(C(C)=O)c(O)c1CCC` stands 136 to 137 °C; under `O=C1N=C(c2ccc(C(=O)Cl)cc2)C(c2ccc(C(=O)Cl)cc2)O1` (configuration not stated), above 300 °C.
In the case of `COC(=O)c1cccc(C2C(C#N)=C(N)Oc3c2ccc2cnccc32)c1` (configuration not stated), the melting point lay within 229 to 230 °C.
For the compound `CCc1c(C(=O)c2cc(C)cc(C)c2)n(C/C=C/CO)c(=O)[nH]c1=O`, the melting point fell in the range of 172 to 173 °C.
In turn, `Cc1cn(C)c2c1N(C(=O)CCN1CCCC1)c1ccccc1NC2=O` gave a melting point of 185 °C.
`CC(C)(C)c1cc(C2CC(=O)N(CCCCCCN3C(=O)CC(c4cc(C(C)(C)C)c(O)c(C(C)(C)C)c4)C3=O)C2=O)cc(C(C)(C)C)c1O` (configuration not stated) displayed a melting point of 190 to 193 °C.
`Cc1cc(Cl)ccc1N1CCCN(CC(C)C)C1=S` came in with a melting point of 88 to 90 °C.
Under `CC(=O)c1ccc(C2=CC3CCCC3C2=O)cc1` (configuration not stated) stands 76 to 77 °C.
The result for `O=C1NCCn2c1cc1c2CCCC1` reads 207 to 209 °C.
Under `Cc1cn(N=Cc2cc(C(C)(C)C)c(O)c(C(C)(C)C)c2)cn1` stands 150 to 151 °C; under `COc1ccc2c(c1[N+](=O)[O-])CNCC(=O)N2`, 220 to 222 °C; under `CCOC(=O)c1cnn(-c2ccc(O)c(C#N)c2)c1`, 233 to 234 °C.
On to `O=S(=O)(Nc1cccc(CCOCc2ccc(-c3ccc(Cl)cc3)cc2)c1)C(F)(F)F`, for which the melting point fell in the range of 69 to 70 °C.
Compound `CC(=O)NC1=CC(C)(C)Oc2ccc(C#N)cc21` showed a melting point of 146 to 147 °C.
Under `CCC1(c2ccc(Cl)cc2)OCc2c1cnc(C)c2O` (configuration not stated) stands 215 °C; under `Cc1nc2c(N)nc3c(c2n1CCCCS(=O)(=O)c1ccc(F)cc1)CCCC3`, 159 to 162 °C; under `CN(C1CCCOc2ccccc21)S(C)(=O)=O` (configuration not stated), 143 to 145 °C.
The result for `O=[N+]([O-])c1ccc(S(=O)(=O)Nc2ccc(O)cc2)cc1` reads 197 to 198 °C; that for `CCS(=O)(=O)CCc1ccc(C(=O)c2ccc(Cl)cc2)cc1`, 117 to 118 °C; that for `O=C(Nc1cc(-c2ccnc3c(C(=O)c4cccs4)cnn23)ccc1F)c1c(F)cccc1F`, 198 to 200 °C.
`COc1ccc(C(=O)Cn2cc[nH]c2=O)cc1OC1CCCC1`: the melting point is 201 °C.
For `CC(C)[Si](Oc1cc(C=O)c2c(c1)C1(C)CCN(C)C1N2C)(C(C)C)C(C)C` (configuration not stated), the melting point lay in the range of 42 to 45 °C.
For `Cc1c(NC(=O)OC(C)(C)C)cc2c(c1C)OC(C)(C)C2=O`, the melting point fell in the range of 154 to 155 °C.
Compound `Cc1c(Cc2cnc[nH]2)cccc1NS(C)(=O)=O` registered a melting point of 224 °C.
The result for `CC(C)(C)c1cc(C(=O)O)ccc1OCc1ccccc1` reads 213 to 214 °C; that for `O=C(c1ccccn1)c1csc(-c2ccccc2)n1`, 95 to 97 °C; that for `Cc1ccc(-c2ccccc2C(=O)NN)cc1`, 98 to 99 °C.
The result for `Cc1c(NC(=O)c2ccc(-c3ccc(F)cc3)cc2)ccc2cc(CN3CCCCC3)cnc12` reads 188 to 190 °C.
Under `Cc1cc(C)c(C#N)c(-c2ccc(F)c(C)c2)c1` stands 98 to 100 °C; under `O=C1Cc2ccc(C3CCCC3)cc2O1`, 42 to 43 °C; under `O=C(C#Cc1ccc(-c2ccc(Cl)cc2)cc1)Nc1ccc(CNCC2CCCCC2)cc1`, 205 to 210 °C.
As for `O=C(c1ccccc1)c1cc(Cc2ccccc2)c(O)c2ccccc12`, the melting point lay in the range of 152 to 155 °C.
Regarding `CC(=O)/C=C(\C)c1ccc(C2CCCCC2)cc1`, the melting point lay in the range of 49 to 50 °C.
Take `CCCCCCCCCCCCOc1cc(CC#N)c(SC)cc1CC#N`: the melting point was in the range of 100 to 102 °C.
In turn, `O=C(NCc1ccccc1)c1oc(=O)c2ncccc2c1-c1ccccc1` returned a melting point of 188 to 189 °C.
In turn, `Cc1nc(NCC(=O)c2ccccc2)c2cc(C)sc2n1` returned a melting point of 159 °C.
In turn, `CCOCCOc1c(C2CCN(CCCCNC(=O)c3ccc(-c4ccc(C(F)(F)F)cc4)cc3)CC2)ccc2c1CCCC2` showed a melting point of 190 °C.
Under `O=C(Nc1cc(F)ccc1N1CCCCC1)c1ccncc1` stands 115 to 116 °C; under `O=C(O)CCC(=NO)c1ccc(-c2ccc(Cl)c(Cl)c2)cc1`, 166 °C; under `C#CCOc1cccc(C)c1S(N)(=O)=O`, 129 °C.
Under `CC1(CN2CCN(N=Cc3ccc(OC(F)(F)F)cc3)CC2)Cn2cc([N+](=O)[O-])nc2O1` (configuration not stated) stands 189 to 191 °C.
`CC(=O)N1CCN(c2ccn3nc(-c4ccccc4)c(-c4ccc(=O)n(C(C)C)n4)c3c2)CC1` showed a melting point of 148 to 149 °C.
The result for `O=C1c2ccccc2C(=O)N1CCCSc1ccccc1` reads 83 to 85 °C; that for `O=S1(=O)NCN(C2CC2)c2c(C(F)(F)F)cccc21`, 165 to 167 °C; that for `CCOC(=O)c1nc(C)n2c1CN=C(c1ccccc1Cl)c1cc(Cl)ccc1-2`, 214 to 215 °C.
Under `COc1c(Br)csc1C(=O)O` stands 191 to 192 °C; under `CC1=C2CCN(CCC(N)=O)CC2c2ccccc21` (configuration not stated), 169 to 170 °C; under `FC(F)(F)c1cccc(-c2ncn(CC3CC3)c2-c2ccncc2)c1`, 106 °C.
Consider `COCc1cc(O)nc(C)n1`, for which the melting point fell in the range of 168 to 170 °C.
Turning to `CC(OC1CCCN(Cc2n[nH]c(=O)[nH]2)C1c1ccccc1)c1cc(C(F)(F)F)cc(C(F)(F)F)c1` (configuration not stated), the melting point fell in the range of 214 to 215 °C.

The term melting point denotes the temperature, or range, at which the solid turns liquid.
